{
  "source": "patent US10184137B2",
  "about": "“Method of producing isoprene monomer” (AJINOMOTO CO., INC., priority 2014, dated 2019)",
  "key": {"[1]": {"target": "T1, Methanosaeta concilii mevalonate kinase (mcl), wild type, SEQ ID NO:6, N-terminal His-tag (Methanothrix soehngenii, UniProt F4BZB3)", "T1 sequence (F4BZB3 1-317)": "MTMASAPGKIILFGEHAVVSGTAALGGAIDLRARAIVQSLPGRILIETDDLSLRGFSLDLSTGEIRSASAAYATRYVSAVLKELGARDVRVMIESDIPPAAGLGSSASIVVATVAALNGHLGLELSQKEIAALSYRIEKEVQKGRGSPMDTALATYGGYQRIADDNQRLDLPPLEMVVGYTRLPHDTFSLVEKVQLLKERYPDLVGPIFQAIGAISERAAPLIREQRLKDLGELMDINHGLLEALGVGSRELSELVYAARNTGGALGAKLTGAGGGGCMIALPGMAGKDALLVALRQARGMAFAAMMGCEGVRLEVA", "test": "Km and kcat of mevalonate kinase (mcl-derived)", "details": "compared with the other enzymes", "procedure": "(§4) Each obtained plasmid was used for transformation of E. coli BL21(DE3). […] When OD600 reached approximately 0.5, 0.1 mM IPTG (for cva, mma, nmr, and sce) or 1 mM (for mcl and mpd) of IPTG was added, and then the mixture was kept at 20° C. overnight to induce the target protein. […] After centrifugation (28,000×g, 30 min), the supernatant was adsorbed onto His-Trap HP (GE Healthcare) to elute the target protein by linear concentration gradient of Imidazol (final concentration 0.5 M). Obtained protein was dialyzed by using an external solution composed of 20 mM Tris-HCl (pH 8.0) containing 1 mM DTT and 50 mM NaCl. Dialyzed protein was designated as purified enzyme. Protein quantity was measured with Bio-RAD protein assay kit and BSA standard condition.\n(§5) Decrease in absorbance at 340 nm at 30° C. was measured to determine the enzyme activity. JASCO Corporation's spectrophotometer (V-650) was used in this study. […] Km value was calculated by Lineweaver-Burk plot."}, "[2]": {"target": "T2, Methanocella paludicola mevalonate kinase (mpd), wild type, SEQ ID NO:1, N-terminal His-tag (Methanocella paludicola, UniProt D1YZ39)", "T2 sequence (D1YZ39 entry or part of it)": "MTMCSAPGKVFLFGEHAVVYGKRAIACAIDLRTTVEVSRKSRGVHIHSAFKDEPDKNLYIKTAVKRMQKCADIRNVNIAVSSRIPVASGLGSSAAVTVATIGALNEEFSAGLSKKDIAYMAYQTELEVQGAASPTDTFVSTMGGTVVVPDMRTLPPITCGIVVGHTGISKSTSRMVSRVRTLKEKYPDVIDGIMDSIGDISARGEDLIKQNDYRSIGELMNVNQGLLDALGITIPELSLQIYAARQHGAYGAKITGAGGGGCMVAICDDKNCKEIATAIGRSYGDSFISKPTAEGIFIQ", "test": "Km and kcat of mevalonate kinase (mpd-derived)", "details": "compared with the other enzymes", "procedure": "as §4, §5"}, "[3]": {"test": "HPLC verification of prepared potassium mevalonate after frozen storage", "details": "HPLC peak area versus lithium mevalonate standard; stored at −20° C.", "procedure": "The mixed solution was then incubated at 37° C. for 2 hours. After incubation, pH of the solution was adjusted to 8.0 by neutralization with hydrochloric acid.\nHPLC used for the verification was HITACH High-Performance Liquid Chromatography (L-2000). HPLC was performed by using YMC-Pack ODS-A (150×4.6 mm I.D.: YMC CO., LTD.) as stationary phase and phosphoric acid (pH2.5) as mobile phase. Detection was performed at 210 nm."}, "[4]": {"target": "T2, Methanocella paludicola mevalonate kinase (mpd), wild type, SEQ ID NO:1, N-terminal His-tag", "test": "Inhibition of mpd-derived mevalonate kinase by DMAPP, GPP, FPP or DPM", "format": "biochemical", "details": "1 mM DPM, control 0.148", "protocol": "(§1) Km value was calculated by Lineweaver-Burk plot.\n(§2) Since GPP and FPP solutions contain methanol, methanol which was needed to keep the same methanol level at the addition to the reaction system was added to the reaction solution, which was designated as control.\n(§3) Effect of 1 mM diphosphomevalonate (DPM) on each enzyme was also studied."}, "[5]": {"target": "T1, Methanosaeta concilii mevalonate kinase (mcl), wild type, SEQ ID NO:6, N-terminal His-tag", "test": "Inhibition of mcl-derived mevalonate kinase by DMAPP, GPP, FPP or DPM", "format": "biochemical", "details": "mcl; 1 mM DPM; control 0.1373", "protocol": "as §1, §2, §3"}, "[6]": {"target": "Corynebacterium variabile mevalonate kinase (cva), wild type, SEQ ID NO:3, N-terminal His-tag (Corynebacterium variabile, UniProt A0A0X2NLH5)", "sequence (A0A0X2NLH5 entry or part of it)": "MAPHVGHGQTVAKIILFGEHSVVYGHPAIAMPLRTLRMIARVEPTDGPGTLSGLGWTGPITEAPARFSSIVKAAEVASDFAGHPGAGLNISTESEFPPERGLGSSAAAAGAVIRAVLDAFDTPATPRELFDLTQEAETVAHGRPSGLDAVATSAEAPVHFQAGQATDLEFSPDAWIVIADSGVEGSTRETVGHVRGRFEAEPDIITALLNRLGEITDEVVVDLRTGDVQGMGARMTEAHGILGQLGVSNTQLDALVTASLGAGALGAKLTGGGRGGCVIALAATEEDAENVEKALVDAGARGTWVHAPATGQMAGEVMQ", "test": "Inhibition of cva-derived mevalonate kinase by DMAPP, GPP, FPP or DPM", "format": "biochemical", "details": "1 mM DPM, control 0.073275", "protocol": "as §1, §2, §3"}, "[7]": {"target": "T3, Nitrosopumilus maritimus mevalonate kinase (nmr), wild type, SEQ ID NO:9, N-terminal His-tag (Nitrosopumilus maritimus, UniProt A9A427)", "T3 sequence (A9A427 1-313)": "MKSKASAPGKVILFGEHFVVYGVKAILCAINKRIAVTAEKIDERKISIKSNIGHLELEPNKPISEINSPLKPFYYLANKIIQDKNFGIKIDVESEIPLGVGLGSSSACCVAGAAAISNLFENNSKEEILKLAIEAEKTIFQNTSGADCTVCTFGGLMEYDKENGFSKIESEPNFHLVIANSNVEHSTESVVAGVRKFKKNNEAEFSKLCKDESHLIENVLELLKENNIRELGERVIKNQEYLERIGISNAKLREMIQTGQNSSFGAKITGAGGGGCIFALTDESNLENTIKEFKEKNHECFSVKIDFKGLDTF", "test": "Examination of product inhibition on nmr-derived mevalonate kinase", "format": "biochemical", "details": "reaction on 1 mM mevalonate"}, "[8]": {"target": "T3, Nitrosopumilus maritimus mevalonate kinase (nmr), wild type, SEQ ID NO:9, N-terminal His-tag", "test": "Inhibition of nmr-derived mevalonate kinase by DMAPP, GPP, FPP or DPM", "format": "biochemical", "details": "1 mM DPM, control 0.2064", "protocol": "as §1, §2, §3"}, "[9]": {"target": "T4, Saccharomyces cerevisiae mevalonate kinase (sce, ERG12), wild type, NP_013935.1, N-terminal His-tag (Saccharomyces cerevisiae, UniProt P07277)", "T4 construct": "His-tag (N); made in house; host or cells: E. coli BL21(DE3)", "T4 sequence (P07277 1-443)": "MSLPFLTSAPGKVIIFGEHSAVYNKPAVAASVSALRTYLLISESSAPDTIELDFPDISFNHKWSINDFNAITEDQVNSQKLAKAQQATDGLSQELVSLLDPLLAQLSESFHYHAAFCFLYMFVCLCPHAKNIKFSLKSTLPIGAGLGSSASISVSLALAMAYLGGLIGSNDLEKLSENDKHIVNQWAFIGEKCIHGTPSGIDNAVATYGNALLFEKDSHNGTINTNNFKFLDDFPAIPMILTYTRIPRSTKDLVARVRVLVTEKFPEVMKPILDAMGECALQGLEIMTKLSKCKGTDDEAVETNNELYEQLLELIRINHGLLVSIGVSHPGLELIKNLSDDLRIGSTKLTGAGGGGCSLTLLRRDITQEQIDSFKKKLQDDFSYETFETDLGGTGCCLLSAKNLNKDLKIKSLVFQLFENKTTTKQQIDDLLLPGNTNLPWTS", "test": "Inhibition of sce-derived mevalonate kinase by DMAPP, GPP, FPP or DPM", "format": "biochemical", "details": "control 0.1028", "protocol": "as §1, §2, §3"}, "[10]": {"target": "T5, Methanosarcina mazei mevalonate kinase (mma), wild type, SEQ ID NO:12, N-terminal His-tag (Methanosarcina mazei, UniProt Q8PW39)", "T5 sequence (Q8PW39 1-301)": "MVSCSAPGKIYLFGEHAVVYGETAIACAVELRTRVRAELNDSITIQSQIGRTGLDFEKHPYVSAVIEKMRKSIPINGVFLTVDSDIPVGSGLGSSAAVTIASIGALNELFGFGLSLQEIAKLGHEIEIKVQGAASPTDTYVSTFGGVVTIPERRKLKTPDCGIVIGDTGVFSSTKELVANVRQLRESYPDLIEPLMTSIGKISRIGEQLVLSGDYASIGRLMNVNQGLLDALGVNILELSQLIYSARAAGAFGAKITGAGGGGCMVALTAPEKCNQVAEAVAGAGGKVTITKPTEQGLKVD", "test": "Inhibition of mma-derived mevalonate kinase by DMAPP, GPP, FPP or DPM", "format": "biochemical", "protocol": "as §1, §2, §3"}},
  "note": "Counter-ions that a name gives are not always drawn.",
  "data": [
    {"smiles": "Nc1ncnc2c1ncn2[C@@H]1O[C@H](COP(=O)(O)OP(=O)(O)OP(=O)(O)O)[C@@H](O)[C@H]1O", "note": "[ATP]", "values": [
      {"measurement": "Affinity", "setting": "[1]", "result": "higher affinity"},
      {"measurement": "Affinity", "setting": "[2]", "result": "higher affinity"}
    ]},
    {"smiles": "C[C@@](O)(CCO)CC(=O)[O-].[K+]", "note": "[potassium mevalonate]", "values": [
      {"measurement": "stability after frozen storage", "setting": "[3]", "result": "stable"}
    ]},
    {"smiles": "CC(O)(CCOP(=O)(O)OP(=O)(O)O)CC(=O)O", "note": "(racemic) [DPM, (±)-mevalonic acid 5-diphosphate tetralithium salt]", "values": [
      {"measurement": "Enzyme activity with 1 mM DPM", "setting": "[4]", "result": 0.156, "unit": "dABS/min"},
      {"measurement": "Enzyme activity with 1 mM DPM", "setting": "[5]", "result": 0.1353, "unit": "dABS/min"},
      {"measurement": "Enzyme activity with 1 mM DPM", "setting": "[6]", "result": 0.07555, "unit": "dABS/min"},
      {"measurement": "DPM-induced inhibition", "setting": "[7]", "result": "inhibition is not observed"},
      {"measurement": "Enzyme activity with 1 mM DPM", "setting": "[8]", "result": 0.2, "unit": "dABS/min"},
      {"measurement": "Enzyme activity with 1 mM DPM", "setting": "[9]", "result": 0.0984, "unit": "dABS/min"},
      {"measurement": "Enzyme activity with 1 mM DPM", "setting": "[10]; 1 mM DPM, control 0.1604", "result": 0.1368, "unit": "dABS/min"},
      {"measurement": "Inhibition by DPM", "setting": "[10]; 1 mM diphosphomevalonate", "result": "Slight inhibitory activity"}
    ]}
  ]
}
